Target: T1, IRAK3-ePL (Homo sapiens, UniProt Q9Y616)
T1 construct: expressed in transfected cells; host or cells: 293T CRBN OE/GSPT1 G575N KI cells, lentiviral transduction, puromycin selected
Assay: IRAK3-ePL overexpressing degradation assay (InCELL Hunter luminescence, dose response)
Format: cell-based
Conditions: for IRAK3 ePL degradation Ymin: lowest percentage of target protein remaining following compound treatment; for DC50: read-out: IRAK3 ePL degradation EC50
Summary of the method: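 Lenti-X 293T CRBN/GSPT1 G575N cells stably expressing IRAK3-ePL (5,000/well) treated overnight at 37° C with 10-point 3-fold dilutions from 10 μM, 0.2% DMSO. InCELL Hunter luminescence, background subtracted using Ataluren wells and normalized to DMSO; EC50 from four-parameter logistic fit.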

Compound	IRAK3 ePL degradation Ymin [%]	DC50 [nM]
Cc1cc(-c2cnc(Nc3cnn([C@H]4CC[C@@H](CN5CCN(c6ccc(C7CCC(=O)NC7=O)cc6)CC5)CC4)c3)c3nccn23)c(F)cc1F (relative stereo) [Compound 71, 3-(4-(4-(((cis)-4-(4-((5-(2,4-difluoro-5-methylphenyl)imidazo[1,2-a]pyrazin-8-yl)amino)-1H-pyrazol-1-yl)cyclohexyl)methyl)piperazin-1-yl)phenyl) piperidine-2,6-dione]	29	1.7
Cc1cccc(-c2cnc(Nc3cnn(C4CCN(CC(=O)N5CCN(c6ccc7c(c6)C(=O)N(C6CCC(=O)NC6=O)C7=O)CC5)CC4)c3)c3nccn23)c1 (stereo not shown) [Compound 1, 2-(2,6-dioxopiperidin-3-yl)-5-(4-(2-(4-(4-((5-(m-tolyl)imidazo[1,2-a]pyrazin-8-yl)amino)-1H-pyrazol-1-yl)piperidin-1-yl)acetyl)piperazin-1-yl)isoindoline-1,3-dione]	31	39
Cc1cccc(-c2cnc(Nc3cnn(C4CCN(CCN5CCN(c6ccc7c(c6)C(=O)N(C6CCC(=O)NC6=O)C7=O)CC5)CC4)c3)c3nccn23)c1 (stereo not shown) [Compound 2, 2-(2,6-dioxopiperidin-3-yl)-5-(4-(2-(4-(4-((5-(m-tolyl)imidazo[1,2-a]pyrazin-8-yl)amino)-1H-pyrazol-1-yl)piperidin-1-yl)ethyl)piperazin-1-yl)isoindoline-1,3-dione]	15	3
Cc1cccc(-c2cnc(Nc3cnn(C4CCN(CCCCN5CCN(c6ccc(C7CCC(=O)NC7=O)cc6)CC5)CC4)c3)c3nccn23)c1 (stereo not shown) [Compound 3, 3-(4-(4-(4-(4-(4-((5-(m-tolyl)imidazo[1,2-a]pyrazin-8-yl)amino)-1H-pyrazol-1-yl)piperidin-1-yl)butyl)piperazin-1-yl)phenyl) piperidine-2,6-dione]	15	3
Cc1cccc(-c2cnc(Nc3cnn(C4CCN(CCCN5CCN(c6ccc(C7CCC(=O)NC7=O)cc6)CC5)CC4)c3)c3nccn23)c1 (stereo not shown) [Compound 4, 3-(4-(4-(3-(4-(4-((5-(m-tolyl)imidazo[1,2-a]pyrazin-8-yl)amino)-1H-pyrazol-1-yl)piperidin-1-yl)propyl)piperazin-1-yl)phenyl) piperidine-2,6-dione]	13	4
Cc1cc(-c2cnc(Nc3cnn(C4CCN(CC(=O)N5CCN(c6ccc7c(c6)C(=O)N(C6CCC(=O)NC6=O)C7=O)CC5)CC4)c3)c3nccn23)c(F)cc1F (stereo not shown) [Compound 6, 5-(4-(2-(4-(4-((5-(2,4-difluoro-5-methylphenyl)imidazo[1,2-a]pyrazin-8-yl)amino)-1H-pyrazol-1-yl)piperidin-1-yl)acetyl)piperazin-1-yl)-2-(2,6-dioxopiperidin-3-yl)isoindoline-1,3-dione]	17	22
Cc1cc(-c2cnc(Nc3cnn(C4CCN(CCN5CCN(c6ccc(C7CCC(=O)NC7=O)cc6)C[C@@H]5C)CC4)c3)c3nccn23)c(F)cc1F (stereo partly drawn) [Compound 7, 3-(4-((S)-4-(2-(4-(4-((5-(2,4-difluoro-5-methylphenyl)imdazo [1,2-a]pyrazin-8-yl)amino)-1H-pyrazol-1-yl)piperidin-1-yl)ethyl)-3-methylpiperazin-1-yl)phenyl) piperidine-2,6-dione]	14	0.6
Cc1cc(-c2cnc(Nc3cnn(C4CCN(CCN5CCN(c6ccc(C7CCC(=O)NC7=O)cc6)CC5)CC4)c3)c3nccn23)c(F)cc1F (stereo not shown) [Compound 8, 3-(4-(4-(2-(4-(4-((5-(2,4-difluoro-5-methylphenyl)imidazo[1,2-a]pyrazin-8-yl)amino)-1H-pyrazol-1-yl)piperidin-1-yl)ethyl)piperazin-1-yl)phenyl)piperidine-2,6-dione]	18	0.5
Cc1cc(-c2cnc(Nc3cnn(C4CCN(CCN5CCN(c6ccc(C7CCC(=O)NC7=O)cc6)C[C@H]5C)CC4)c3)c3nccn23)c(F)cc1F (stereo partly drawn) [Compound 9, 3-(4-((R)-4-(2-(4-(4-((5-(2,4-difluoro-5-methylphenyl)imdazo [1,2-a]pyrazin-8-yl)amino)-1H-pyrazol-1-yl)piperidin-1-yl)ethyl)-3-methylpiperazin-1-yl)phenyl) piperidine-2,6-dione]	14	0.5
Cc1cc(-c2cnc(Nc3cnn(C4CCN(CC(=O)N5CCN(c6ccc7c(c6)CN(C6CCC(=O)NC6=O)C7=O)CC5)CC4)c3)c3nccn23)c(F)cc1F (stereo not shown) [Compound 10, 3-(5-(4-(2-(4-(4-((5-(2,4-difluoro-5-methylphenyl)imidazo[1,2-a]pyrazin-8-yl)amino)-1H-pyrazol-1-yl)piperidin-1-yl)acetyl)piperazin-1-yl)-1-oxoisoindolin-2-yl)piperidine-2,6-dione]	22	19
Cc1cc(-c2cnc(Nc3cnn([C@H]4CC[C@H](CCN5CCN(c6ccc(C7CCC(=O)NC7=O)cc6)CC5)CC4)c3)c3nccn23)c(F)cc1F (stereo partly drawn) [Compound 11, 3-(4-(4-(2-((trans)-4-(4-((5-(2,4-difluoro-5-methylphenyl)imidazo[1,2-a]pyrazin-8-yl)amino)-1H-pyrazol-1-yl)cyclohexyl)ethyl)piperazin-1-yl)phenyl)piperidine-2,6-dione]	22	4
Cc1cc(-c2ccc(Nc3cnn(C4CCN(CCN5CCN(c6ccc(C7CCC(=O)NC7=O)cc6)CC5)CC4)c3)c3nccn23)c(F)cc1F (stereo not shown) [Compound 12, 3-(4-(4-(2-(4-(4-((5-(2,4-difluoro-5-methylphenyl)imdazo [1,2-a]pyridin-8-yl)amino)-1H-pyrazol-1-yl)piperidin-1-yl)ethyl)piperazin-1-yl)phenyl) piperidine-2,6-dione]	14	3
Cc1cc(-c2cnc(Nc3cnn(C4CCN(CCN5[C@H](C)CN(c6ccc(C7CCC(=O)NC7=O)cc6)C[C@@H]5C)CC4)c3)c3nccn23)c(F)cc1F (stereo partly drawn) [Compound 13, 3-(4-((3S,5R)-4-(2-(4-(4-((5-(2,4-difluoro-5-methylphenyl)imdazo [1,2-a]pyrazin-8-yl)amino)-1H-pyrazol-1-yl)piperidin-1-yl)ethyl)-3,5-dimethylpiperazin-1-yl)phenyl) piperidine-2,6-dione]	13	0.86
Cc1cc(-c2cnc(Nc3cnn([C@H]4CC[C@@H](CCN5CCN(c6ccc(C7CCC(=O)NC7=O)cc6)CC5)CC4)c3)c3nccn23)c(F)cc1F (stereo partly drawn) [Compound 14, 3-(4-(4-(2-((cis)-4-(4-((5-(2,4-difluoro-5-methylphenyl)imidazo[1,2-a]pyrazin-8-yl)amino)-1H-pyrazol-1-yl)cyclohexyl)ethyl)piperazin-1-yl)phenyl) piperidine-2,6-dione]	15	1.1
Cc1cccc(-c2cnc(Nc3cnn(C4CCN(CC(=O)N5CCN(c6ccc7c(c6)C(=O)N(C6CCC(=O)NC6=O)C7)CC5)CC4)c3)c3nccn23)c1 (stereo not shown) [Compound 16, 3-(1-oxo-6-(4-(2-(4-(4-((5-(m-tolyl)imidazo[1,2-a]pyrazin-8-yl)amino)-1H-pyrazol-1-yl)piperidin-1-yl)acetyl)piperazin-1-yl)isoindolin-2-yl)piperidine-2,6-dione]	33	21
Cc1cc(-c2cnc(Nc3cnn(C4CCN(CC(=O)N5CCN(c6ccc(C7CCC(=O)NC7=O)cc6)CC5)CC4)c3)c3nccn23)c(F)cc1F (stereo not shown) [Compound 17, 3-(4-(4-(2-(4-(4-((5-(2,4-difluoro-5-methylphenyl)imidazo[1,2-a]pyrazin-8-yl)amino)-1H-pyrazol-1-yl)piperidin-1-yl)acetyl)piperazin-1-yl)phenyl)piperidine-2,6-dione]	14	0.51
Cc1cc(-c2cnc(Nc3cnn(C4CCN(CC(=O)N5CCN(c6ccc7c(c6)C(=O)N(C6CCC(=O)NC6=O)C7)CC5)CC4)c3)c3nccn23)c(F)cc1F (stereo not shown) [Compound 18, 3-(6-(4-(2-(4-(4-((5-(2,4-difluoro-5-methylphenyl)imidazo[1,2-a]pyrazin-8-yl)amino)-1H-pyrazol-1-yl)piperidin-1-yl)acetyl)piperazin-1-yl)-1-oxoisoindolin-2-yl)piperidine-2,6-dione]	22	9.7
Cc1cccc(-c2cnc(Nc3cnn(C4CCN(CC(=O)N5CCN(c6ccc7c(c6)CN(C6CCC(=O)NC6=O)C7=O)CC5)CC4)c3)c3nccn23)c1 (stereo not shown) [Compound 19, 3-(1-oxo-5-(4-(2-(4-(4-((5-(m-tolyl)imidazo[1,2-a]pyrazin-8-yl)amino)-1H-pyrazol-1-yl)piperidin-1-yl)acetyl)piperazin-1-yl)isoindolin-2-yl)piperidine-2,6-dione]	18	12
Cc1cc(-c2cnc(Nc3cnn(C4CCN(CCN5CCN(c6cccc(C7CCC(=O)NC7=O)c6)CC5)CC4)c3)c3nccn23)c(F)cc1F (stereo not shown) [Compound 31, 3-(3-(4-(2-(4-(4-((5-(2,4-difluoro-5-methylphenyl)imdazo [1,2-a]pyrazin-8-yl)amino)-1H-pyrazol-1-yl)piperidin-1-yl)ethyl)piperazin-1-yl)phenyl) piperidine-2,6-dione]	44	38
Cc1cc(-c2cnc(Nc3cnn(C4CCN(CCN5CCN(c6ccc(C7CCC(=O)NC7=O)cc6)CC5)CC4)c3)c3nccn23)ccc1F (stereo not shown) [Compound 33, 3-(4-(4-(2-(4-(4-((5-(4-fluoro-3-methylphenyl)imdazo [1,2-a]pyrazin-8-yl)amino)-1H-pyrazol-1-yl)piperidin-1-yl)ethyl)piperazin-1-yl)phenyl) piperidine-2,6-dione]	24	7.9
